# Measurements reported in patent US6025330A, “Inhibitors of fibrin cross-linking and/or transglutaminases” (BioPharm Research & Development Ltd., priority 1995, dated 2000).
# No end group written: not given here.
# Key:
# [1] = target: T1, human plasma factor XIIIa (Homo sapiens, UniProt P00488); assay: production of ammonia from casein on ethylamine incorporation (glutamate dehydrogenase/NADH coupled); type: biochemical; conditions: control 4.14
# T1 construct: from tissue; host or cells: human plasma (defibrinogenated, not purified further)
# T1 sequence (P00488 39-732 limits assumed): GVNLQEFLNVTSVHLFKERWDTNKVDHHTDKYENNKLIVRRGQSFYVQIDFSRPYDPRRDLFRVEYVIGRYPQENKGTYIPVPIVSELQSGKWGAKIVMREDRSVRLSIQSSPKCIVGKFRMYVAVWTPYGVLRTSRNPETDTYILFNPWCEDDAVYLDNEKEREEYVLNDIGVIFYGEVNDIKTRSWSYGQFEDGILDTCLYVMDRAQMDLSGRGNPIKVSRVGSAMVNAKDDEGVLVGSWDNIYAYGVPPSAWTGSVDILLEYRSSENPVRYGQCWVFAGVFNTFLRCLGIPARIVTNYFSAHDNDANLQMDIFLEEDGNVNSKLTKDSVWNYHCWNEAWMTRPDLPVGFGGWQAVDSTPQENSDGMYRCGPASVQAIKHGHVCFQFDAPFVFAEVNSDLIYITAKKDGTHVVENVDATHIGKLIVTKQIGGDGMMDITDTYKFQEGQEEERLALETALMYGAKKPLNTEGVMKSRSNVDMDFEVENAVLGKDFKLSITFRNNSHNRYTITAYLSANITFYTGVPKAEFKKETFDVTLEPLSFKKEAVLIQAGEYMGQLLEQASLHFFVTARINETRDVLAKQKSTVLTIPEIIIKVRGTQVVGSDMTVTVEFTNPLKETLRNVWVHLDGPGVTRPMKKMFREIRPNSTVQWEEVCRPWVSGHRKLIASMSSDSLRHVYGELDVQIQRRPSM
# Protocol: The transglutaminase activity of human plasma factor XIIIa was measured spectrophotometrically by a modification of the method of Muszbek, Polgar and Fesus; "Kinetic determination of blood coagulation factor XIII in plasma." Clin Chem 31 (1985) pp. 35-40. This method measures the production of ammonia by linking it through the glutamate dehydrogenase reaction to NADH oxidation which can be monitored by the change in absorption at 340 nm. Factor XIII was activated by incubating defibrinated human plasma (2 ml) and 200 mM CaCl2 (0.1 ml) with 1000 unit/ml bovine thrombin (0.1 ml) at 37° C. After 15 min the reaction was stopped by the addition of 260 antithrombin units of hirudin. The reaction cuvette contained: 2.5 mM dithiothreitol (0.1 ml), 40 mg/ml dephosphorylated β-casein (0.05 ml), 70 mM ethylamine (0.1 ml), 12 mM sodium 2-ketoglutarate (0.1 ml), 4 mM NADH (0.1 ml), 1.2 mM ADP (0.1 ml), 40 unit/ml glutamate dehydrogenase (0.1 ml), 70 mM HEPES buffer pH7.5 (0.25 ml) and this was placed in a spectrophotometer at 20° C. All components were dissolved in 70 mM HEPES buffer pH 7.5 where possible. The reaction was started by the addition of the activated factor XIII (0.2 ml) and monitored at 340 nm. The assay was validated with the use of factor XIII-deficient plasma (Sigma).
# Test samples were added in 0.1 ml of the HEPES buffer to the reaction cuvette. […]
# [2] = system: factor XIIIa; assay: clot solubility assay (fibrin clot in urea); type: biochemical, bovine; conditions: iodoacetamide 100 μM, lowered absorbance = clot soluble in urea
# Protocol: In a first experiment A, the proboscis, anterior and posterior salivary glands of a leech of the species Haementeria ghilianii were homogenised together in a Potter homogeniser in 10 mM Tris HCl, 0.85% w/v NaCl pH7.0 (1 ml), and centrifuged at 13000 rpm. The supernatant was assayed in a clot solubility assay similar to that of Tymiak, Tuttle, Kimball, Wang and Lee "A simple and rapid screen for inhibitors of factor XIIIa". J. Antibiotics 46 (1993) pp. 204-206. In a second experiment B, the proboscis, anterior and posterior salivary glands were dissected from a leech of the species Haementeria ghilianii and homogenised separately in 0.2 ml aliquots of the buffer. The effect was compared with extracts of the proboscis, anterior and posterior salivary glands from two leeches of the species Haementeria officinalis prepared in 0.2 ml buffer. The test samples (30 μl) were added to a solution of 10 mg/ml crude bovine fibrinogen which contains factor XIII (30 μl). The reaction was started by adding 6.25 units/ml bovine thrombin containing 9 mM CaCl2 (40 μl). A clot formed in 15 min when 8M urea (160 μl) was added and left in contact with the clot. After 30 min, the absorbance resulting from the clot's opalescence was read at 405 nm. Lowered absorbance indicates solubility of the clot resulting from inhibition of cross-linking. […] The numerical values quoted in the table are absorbance at 405 nm.
# [3] = system: thrombin; assay: thrombin chromogenic substrate assay (S2238); type: biochemical; conditions: 0.046 μg/ml
# Protocol: (§1) The effect of Tridegin variant 1 purified as in Example 6 was tested on the coagulation enzyme, thrombin. with a chromogenic substrate assay. 1 mM S2238 was incubated in 50 mM Tris HCl pH 8.3 and the reaction was started by adding thrombin 0.15 U/ml final concentration. The reaction was monitored in a spectrophotometer at 405 nm.
# [4] = target: human factor Xa (Homo sapiens, UniProt P00742); assay: factor Xa chromogenic substrate assay (S2765); type: biochemical; conditions: 0.046 μg/ml
# Sequence of human factor Xa (P00742 41-179 limits assumed): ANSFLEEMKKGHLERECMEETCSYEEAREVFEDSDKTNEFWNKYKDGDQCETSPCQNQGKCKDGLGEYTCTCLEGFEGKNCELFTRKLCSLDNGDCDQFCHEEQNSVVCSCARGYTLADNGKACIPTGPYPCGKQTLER
# Sequence of human factor Xa (P00742 235-488 limits assumed): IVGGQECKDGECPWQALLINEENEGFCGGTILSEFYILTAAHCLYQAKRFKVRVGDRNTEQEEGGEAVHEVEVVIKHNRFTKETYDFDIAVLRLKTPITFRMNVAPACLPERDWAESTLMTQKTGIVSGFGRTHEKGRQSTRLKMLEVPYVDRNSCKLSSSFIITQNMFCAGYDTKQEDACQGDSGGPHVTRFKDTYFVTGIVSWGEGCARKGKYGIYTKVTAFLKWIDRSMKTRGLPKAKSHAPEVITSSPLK
# Protocol: as §1
# The effect of the Tridegin purified as in Example 6 was tested on factor Xa. 2 mM S2765 was incubated in 50 mM Tris HCl pH 8.3 and the reaction was started by adding human factor Xa. The assay was performed as in Example 11. […] This confirms that, not only is the transglutaminase inhibitor different from previously known inhibitors of factor Xa, but the methods exemplified to purify the transglutaminase inhibitor successfully remove the factor Xa inhibitors.
molecule,measurement,setting,value
O=C(O)CN(CCOCCOCCN(CC(=O)O)CC(=O)O)CC(=O)O [EGTA],Change in absorbance,[1]; 77 mM in cuvette,0.024 mAbs/min
NC(=O)CI [Iodoacetamide],Change in absorbance,[1]; 0.077 mM in cuvette,0.356 mAbs/min
same,"absorbance at 405 nm, Experiment A",[2]; Tris buffer 0.74,0.26
same,"absorbance at 405 nm, Experiment B",[2]; Tris buffer 0.83,0.42
Hirudin,inhibitory effect on thrombin,[3],95%
same,Rate of Reaction,[3]; control 49.8,2.63 mAbs/min
"rTAP: recombinant tick anticoagulant peptide, a known inhibitor of factor Xa (YNRLCIKPRDWIDECDSNEGGERAYFRNGKGGCDSFWICPEDHTGADYYSSYRDCFNACI; ends and bridges not checked; cysteine pairing not given here; UniProt P17726 1-60, looked up)",inhibition of factor Xa,[4],89.9%
same,Reaction Rate,[4]; control 49.8,5.53 mAbs/min
